Values of other authors, collected in US20230079706A1, “Solid Cleansing Compositions and Methods for the Same” (Colgate-Palmolive Company, priority 2021, published 2023).

System: melanin
Details: personal care compositions with lower than 2.0 wt % Kojic acid

With `O=c1cc(CO)occ1O` [Kojic acid, 5-Hydroxy-2-(hydroxymethyl)-4H-pyran-4-one] as the compound, how does the “Efficacy in the reduction of melanin and/or the inhibition of melanin production” value read?
The value was “poor to no efficacy”.
